Holding throughout (assay type): functional, cell-based
One test has as its system MCF7. In words: Antiproliferative activity against human MCF7 cells assessed as reduction in cell viability measured after 24 hrs by MTT assay. Conditions: MCF7, 24 h. (In general: Tetrazolium assays rely on reduction of a dye to a coloured formazan, in cell work by metabolically active cells.)
The test system of the next test is HeLa. In words: Antiproliferative activity against human HeLa cells assessed as reduction in cell viability measured after 24 hrs by MTT assay.
A further test concerns Raji. In words: Antiproliferative activity against human Raji cells assessed as reduction in cell viability measured after 24 hrs by MTT assay.
The subject of another test is NCI-H460. In words: Antiproliferative activity against human NCI-H460 cells assessed as reduction in cell viability measured after 24 hrs by MTT assay. Conditions: NCI-H460, 24 h.
A further test relates to A2780S. Description: Antiproliferative activity against human A2780S cells assessed as reduction in cell viability measured after 24 hrs by MTT assay.

A word on the IC50: it is the concentration that inhibits the measured activity by half. On to `Cc1ccccc1Oc1cccc(CNc2cc3c(cn2)[nH]c2ccccc23)c1`, for which the IC50 was 59 nM with MCF7; 57 nM in the test on HeLa; 32 nM in the test with Raji; 52 nM in the test with NCI-H460; 62 nM with A2780S.

With `c1cc(CNc2cc3c(cn2)[nH]c2ccccc23)cc(Oc2ccc3ncccc3c2)c1`, the IC50 in the test on MCF7 is 64 nM; in the test with HeLa it was 93 nM; in the test with Raji it was 119 nM; in the test on NCI-H460, 234 nM; with A2780S, 78 nM.

With `Clc1ccccc1Oc1cccc(CNc2cc3c(cn2)[nH]c2ccccc23)c1`, the IC50 in the test with MCF7 came to 19 nM; with HeLa it was 63 nM; in the test with Raji it was 59 nM; with NCI-H460, 74 nM; with A2780S, 43 nM.

As for `c1ccc(COc2cccc(CNc3cc4c(cn3)[nH]c3ccccc34)c2)cc1`, the IC50 in the test on MCF7, in the test on HeLa, in the test on Raji, with NCI-H460 and in the test with A2780S was above 500 nM in each case.

For the compound `N#Cc1ccccc1Oc1cccc(CNc2cc3c(cn2)[nH]c2ccccc23)c1`, the IC50 in the test on MCF7, with HeLa, in the test on Raji, with NCI-H460 and in the test with A2780S was above 500 nM each time.

With `c1ccc2c(CNc3cc4c(cn3)[nH]c3ccccc34)cccc2c1`, the IC50 with MCF7, in the test with HeLa, with Raji, in the test on NCI-H460 and with A2780S was above 500 nM throughout.

As for `c1cc(CNc2cc3c(cn2)[nH]c2ccccc23)cc(OC2CCC2)c1`, the IC50 with MCF7, in the test with HeLa, in the test with Raji, in the test with NCI-H460 and with A2780S was above 500 nM each time.

With `c1ccc2c(c1)[nH]c1cnc(NCC3CCCCC3)cc12`, the IC50 in the test with MCF7, with HeLa, in the test with Raji, in the test on NCI-H460 and in the test with A2780S was above 500 nM in each case.

As to `COc1ccc(Oc2cccc(CNc3cc4c(cn3)[nH]c3ccccc34)c2)cc1OC`, the IC50 in the test with MCF7 was 432 nM; with HeLa it was 266 nM; in the test with Raji, 383 nM; with NCI-H460, above 500 nM; in the test with A2780S it was 264 nM.

As for `c1ccc2ncc(CNc3cc4c(cn3)[nH]c3ccccc34)cc2c1`, the IC50 in the test with MCF7, in the test with HeLa, with Raji, with NCI-H460 and with A2780S was above 500 nM in each case.

For `c1ccc2c(CNc3cc4c(cn3)[nH]c3ccccc34)c[nH]c2c1`, the IC50 in the test on MCF7, in the test on HeLa, with Raji, with NCI-H460 and with A2780S was above 500 nM in each case.

With `CCCCNc1cc2c(cn1)[nH]c1ccccc12`, the IC50 is 513 nM in the test with MCF7; above 500 nM in the test on HeLa; 220 nM in the test with Raji; 340 nM in the test with NCI-H460; 175 nM in the test on A2780S.

Regarding `c1ccc2cc(CNc3cc4c(cn3)[nH]c3ccccc34)ccc2c1`, the IC50 in the test on MCF7, with HeLa, in the test on Raji, with NCI-H460 and with A2780S was above 500 nM in each case.

`COc1cc(Oc2cccc(CNc3cc4c(cn3)[nH]c3ccccc34)c2)cc(OC)c1OC`: the IC50 with MCF7, in the test on HeLa, with Raji, in the test on NCI-H460 and in the test with A2780S was above 500 nM throughout.

For `Cc1ccc(Oc2cccc(CNc3cc4c(cn3)[nH]c3ccccc34)c2)cc1`, the IC50 amounted to 39 nM in the test on MCF7; 56 nM with HeLa; 57 nM in the test with Raji; 165 nM in the test on NCI-H460; 55 nM in the test on A2780S.

On to `CC(C)COc1cccc(CNc2cc3c(cn2)[nH]c2ccccc23)c1`, for which the IC50 in the test on MCF7, with HeLa, in the test on Raji, with NCI-H460 and with A2780S was above 500 nM each time.

Consider `N#Cc1ccc(Oc2cccc(CNc3cc4c(cn3)[nH]c3ccccc34)c2)cc1`, for which the IC50 with MCF7 is 47 nM; in the test with HeLa, 46 nM; with Raji it was 37 nM; in the test on NCI-H460 it was 48 nM; in the test on A2780S it was 60 nM.

Regarding `c1cncc(Oc2cccc(CNc3cc4c(cn3)[nH]c3ccccc34)c2)c1`, the IC50 in the test with MCF7 worked out at 153 nM; in the test on HeLa, 209 nM; with Raji, 333 nM; in the test on NCI-H460 it was 333 nM; in the test with A2780S it was 229 nM.

For the compound `Clc1cccc(Oc2cccc(CNc3cc4c(cn3)[nH]c3ccccc34)c2)c1`, the IC50 came to 39 nM in the test with MCF7; 43 nM with HeLa; 32 nM with Raji; 47 nM with NCI-H460; 60 nM in the test with A2780S.

For the compound `CCCCOc1cccc(CNc2cc3c(cn2)[nH]c2ccccc23)c1`, the IC50 in the test with MCF7, in the test on HeLa, with Raji, in the test with NCI-H460 and with A2780S was above 500 nM each time.

With `CC(C)Oc1cccc(CNc2cc3c(cn2)[nH]c2ccccc23)c1`, the IC50 with MCF7, in the test on HeLa, with Raji, in the test on NCI-H460 and with A2780S was above 500 nM each time.

Take `c1cc(CNc2cc3c(cn2)[nH]c2ccccc23)cc(OCC2CC2)c1`: the IC50 with MCF7, in the test with HeLa, in the test with Raji, in the test with NCI-H460 and in the test on A2780S was above 500 nM throughout.

As to `CC(C)=CCNc1cc2c(cn1)[nH]c1ccccc12`, the IC50 in the test on MCF7 was above 500 nM; in the test with HeLa it was above 500 nM; in the test with Raji, 382 nM; in the test on NCI-H460, above 500 nM; in the test on A2780S, above 500 nM.

(Values after ChEMBL document CHEMBL5042535, “Structure-Based Design and Synthesis of N-Substituted 3-Amino-β-Carboline Derivatives as Potent αβ-Tubulin Degradation Agents” (J Med Chem, 2022).)
